The text below walks through data of patent US20250230172A1 (Vanqua Bio, Inc., priority 2021, published 2025).

The target of the experiment is T1, GCase (Homo sapiens, UniProt P04062).
T1 construct: endogenous in cells; host or cells: HeLa cells
T1 sequence (P04062 40-536): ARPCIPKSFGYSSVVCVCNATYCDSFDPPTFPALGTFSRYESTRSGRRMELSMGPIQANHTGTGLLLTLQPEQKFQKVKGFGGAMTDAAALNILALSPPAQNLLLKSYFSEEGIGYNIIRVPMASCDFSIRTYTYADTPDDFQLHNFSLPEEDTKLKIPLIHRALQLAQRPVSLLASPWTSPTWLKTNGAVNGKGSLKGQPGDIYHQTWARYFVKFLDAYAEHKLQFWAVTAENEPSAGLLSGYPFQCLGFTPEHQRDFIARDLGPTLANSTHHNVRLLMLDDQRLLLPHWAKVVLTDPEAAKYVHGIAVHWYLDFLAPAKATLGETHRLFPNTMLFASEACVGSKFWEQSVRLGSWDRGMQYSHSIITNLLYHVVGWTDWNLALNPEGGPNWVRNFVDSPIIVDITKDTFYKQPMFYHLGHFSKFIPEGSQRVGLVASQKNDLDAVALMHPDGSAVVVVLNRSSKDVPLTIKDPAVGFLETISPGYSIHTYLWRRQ
In words: live cell PFB assay in HELA cells for activation of GCase. The class given is cell-based. Here is the method:
Exemplary compounds were evaluated for activation of GCase in a live cell PFB assay in HELA cells (essentially as described in Ysselstein et al., “LRRK2 kinase activity regulates lysosomal glucocerebrosidase in neurons derived from Parkinson's disease patients” Nature Communications (2019) 10:5570). […] EC50 ranges: A: <10 μM; B: >10-50 μM; C: >50-100 μM; D: >100 μM.
A word on the EC50: it is the concentration giving half of the maximal effect. A low value points to greater potency. Take `FC(F)Cn1ncc2ncc(N3C[C@H]4CCN(c5ncccc5C(F)(F)F)C[C@H]4C3)nc21` (racemic) [Compound 17]: the EC50 lay in the range of 10 to 50 µM. With `FC(F)Cn1ncc2ncc(N[C@H]3C[C@@H]4CN(c5cccnc5C(F)(F)F)C[C@@H]4C3)nc21` [Compound 37, (3aR,5R,6aS)—N-[1-(2,2-difluoroethyl)-1H-pyrazolo[3,4-b]pyrazin-6-yl]-2-[2-(trifluoromethyl)pyridin-3-yl]-octahydrocyclopenta[c]pyrrol-5-amine] the figure was less than 10 µM.

As to `FC(F)Cn1ncc2ncc(N3CC[C@@H]4CN(c5ccncc5C(F)(F)F)C[C@@H]4C3)nc21` (racemic) [Compound 25], the EC50 is greater than 100 µM. Next, `FC(F)Cn1ncc2ncc(N[C@H]3C[C@@H]4CN(c5nnccc5C(F)(F)F)C[C@@H]4C3)nc21` [Compound 84, 1-(2,2-difluoroethyl)-N-((3aR,5s,6aS)-2-(4-(trifluoromethyl)pyridazin-3-yl)octahydrocyclopenta[c]pyrrol-5-yl)-1H-pyrazolo[3,4-b]pyrazin-6-amine]: greater than 100 µM; `FC(F)Cn1ncc2ncc(N3C[C@@H]4CN(c5cc(C(F)(F)F)ccn5)C[C@H]4C3)nc21` (racemic) [Compound 44, rac-2-[(3aR,6aR)-5-[1-(2,2-difluoroethyl)-1H-pyrazolo[3,4-b]pyrazin-6-yl]-octahydropyrrolo[3,4-c]pyrrol-2-yl]-4-(trifluoromethyl)pyridine]: greater than 100 µM; `FC(F)Cn1ncc2ncc(N3C[C@H]4CN(c5cccc(C(F)(F)F)n5)C[C@H]4C3)nc21` [Compound 45, rac-2-[(3aR,6aS)-5-[1-(2,2-difluoroethyl)-1H-pyrazolo[3,4-b]pyrazin-6-yl]-octahydropyrrolo[3,4-c]pyrrol-2-yl]-6-(trifluoromethyl)pyridine]: greater than 100 µM.

In turn, `FC(F)Cn1ncc2ncc(N[C@@H]3C[C@@H]4CN(c5cc(C(F)(F)F)ccn5)C[C@@H]4C3)nc21` [Compound 33, (3aR,5S,6aS)—N-[1-(2,2-difluoroethyl)-1H-pyrazolo[3,4-b]pyrazin-6-yl]-2-[4-(trifluoromethyl)pyridin-2-yl]-octahydrocyclopenta[c]pyrrol-5-amine] had a half-maximal effective concentration (EC50) of less than 10 µM. `FC(F)Cn1ncc2ncc(N[C@H]3C[C@@H]4CN(c5nccnc5C(F)(F)F)C[C@@H]4C3)nc21` [Compound 80, 1-(2,2-difluoroethyl)-N-((3aR,5s,6aS)-2-(3-(trifluoromethyl)pyrazin-2-yl)octahydrocyclopenta[c]pyrrol-5-yl)-1H-pyrazolo[3,4-b]pyrazin-6-amine] returned an EC50 of less than 10 µM. With `FC(F)Cn1ncc2ncc(N[C@H]3C[C@@H]4CN(c5ncncc5C(F)(F)F)C[C@@H]4C3)nc21` [Compound 91, 1-(2,2-difluoroethyl)-N-((3aR,5s,6aS)-2-(5-(trifluoromethyl)pyrimidin-4-yl)octahydrocyclopenta[c]pyrrol-5-yl)-1H-pyrazolo[3,4-b]pyrazin-6-amine] the figure was less than 10 µM.

Molecule `FC(F)Cn1ncc2ncc(N3C[C@H]4CCN(c5cnccc5C(F)(F)F)C[C@H]4C3)nc21` (racemic) [Compound 24, rac-3-[(3aR,7aR)-2-[1-(2,2-difluoroethyl)-1H-pyrazolo[3,4-b]pyrazin-6-yl]-octahydro-1H-pyrrolo[3,4-c]pyridin-5-yl]-4-(trifluoromethyl)pyridine] displayed an EC50 of 10 to 50 µM. With `FC(F)Cn1ncc2ncc(N[C@H]3C[C@@H]4CN(c5ccc(C(F)(F)F)nc5)C[C@@H]4C3)nc21` [Compound 42, (3aR,5S,6aS)—N-[1-(2,2-difluoroethyl)-1H-pyrazolo[3,4-b]pyrazin-6-yl]-2-[6-(trifluoromethyl)pyridin-3-yl]-octahydrocyclopenta[c]pyrrol-5-amine] the figure was 10 to 50 µM; with `FC(F)Cn1ncc2ncc(N3CC4CC(Oc5cccnc5C(F)(F)F)CC4C3)nc21` (centres unmarked) [Compound 31, 3-({2-[1-(2,2-difluoroethyl)-1H-pyrazolo[3,4-b]pyrazin-6-yl]-octahydrocyclopenta[c]pyrrol-5-yl}oxy)-2-(trifluoromethyl)pyridine], greater than 100 µM. With `FC(F)Cn1ncc2ncc(N[C@H]3C[C@@H]4CN(c5cc(C(F)(F)F)ncn5)C[C@@H]4C3)nc21` [Compound 90, 1-(2,2-difluoroethyl)-N-((3aR,5s,6aS)-2-(6-(trifluoromethyl)pyrimidin-4-yl)octahydrocyclopenta[c]pyrrol-5-yl)-1H-pyrazolo[3,4-b]pyrazin-6-amine] the figure was less than 10 µM.

Consider `FC(F)Cn1ncc2ncc(N[C@@H]3C[C@@H]4CN(c5ccc(C(F)(F)F)nc5)C[C@@H]4C3)nc21` [Compound 39, (3aR,5S,6aS)—N-[1-(2,2-difluoroethyl)-1H-pyrazolo[3,4-b]pyrazin-6-yl]-2-[6-(trifluoromethyl)pyridin-3-yl]-octahydrocyclopenta[c]pyrrol-5-amine], for which the EC50 was less than 10 µM. Next, `FC(F)(F)c1ccnc(N2C[C@H]3CCN(c4cnc5cnn(C6COC6)c5n4)C[C@H]3C2)c1` (racemic) [Compound 1]: less than 10 µM. `FC(F)Cn1ncc2ncc(N3CC[C@@H]4CN(c5ccc(C(F)(F)F)cn5)C[C@H]4C3)nc21` (single isomer, unassigned) [Compound 68] yielded an EC50 of 10 to 50 µM. For the molecule `FC(F)Cn1ncc2ncc(N3CC[C@H]4CN(c5ccc(C(F)(F)F)cn5)C[C@@H]4C3)nc21` [Compound 69, 1-(2,2-difluoroethyl)-6-((3aS,7aR)-2-(5-(trifluoromethyl)pyridin-2-yl)octahydro-5H-pyrrolo[3,4-c]pyridin-5-yl)-1H-pyrazolo[3,4-b]pyrazine], the EC50 was in the range of 10 to 50 µM. As for `FC(F)Cn1ncc2ncc(N3C[C@H]4CCN(c5ccc(C(F)(F)F)nc5)C[C@H]4C3)nc21` (racemic) [Compound 20, rac-5-[(3aR,7aR)-2-[1-(2,2-difluoroethyl)-1H-pyrazolo[3,4-b]pyrazin-6-yl]-octahydro-1H-pyrrolo[3,4-c]pyridin-5-yl]-2-(trifluoromethyl)pyridine], the EC50 fell in the range of 10 to 50 µM. With `FC(F)Cn1ncc2ncc(N[C@H]3C[C@@H]4CN(c5cnc(C(F)(F)F)cn5)C[C@@H]4C3)nc21` [Compound 79, 1-(2,2-difluoroethyl)-N-((3aR,5s,6aS)-2-(5-(trifluoromethyl)pyrazin-2-yl)octahydrocyclopenta[c]pyrrol-5-yl)-1H-pyrazolo[3,4-b]pyrazin-6-amine] the figure was 10 to 50 µM; with `FC(F)Cn1ncc2ncc(N3C[C@H]4CCN(c5ccnc(C(F)(F)F)c5)C[C@H]4C3)nc21` (racemic) [Compound 23, rac-4-[(3aR,7aR)-2-[1-(2,2-difluoroethyl)-1H-pyrazolo[3,4-b]pyrazin-6-yl]-octahydro-1H-pyrrolo[3,4-c]pyridin-5-yl]-2-(trifluoromethyl)pyridine], 10 to 50 µM; with `O=C1C2CCN(c3cnc4cnn(CC(F)F)c4n3)CC2CN1c1cccc(C(F)(F)F)n1` (centres unmarked) [Compound 67, 5-(1-(2,2-difluoroethyl)-1H-pyrazolo[3,4-b]pyrazin-6-yl)-2-(6-(trifluoromethyl)pyridin-2-yl)octahydro-1H-pyrrolo[3,4-c]pyridin-1-one], less than 10 µM. With `FC(F)Cn1ncc2ncc(N3C[C@H]4CCN(c5ccncc5C(F)(F)F)C[C@H]4C3)nc21` (racemic) [Compound 22, rac-4-[(3aR,7aR)-2-[1-(2,2-difluoroethyl)-1H-pyrazolo[3,4-b]pyrazin-6-yl]-octahydro-1H-pyrrolo[3,4-c]pyridin-5-yl]-3-(trifluoromethyl)pyridine] the figure was less than 10 µM. Consider `O=C1C2CN(c3cnc4cnn(CC(F)F)c4n3)CCC2CN1c1cccc(C(F)(F)F)n1` (centres unmarked) [Compound 65, 5-(1-(2,2-difluoroethyl)-1H-pyrazolo[3,4-b]pyrazin-6-yl)-2-(6-(trifluoromethyl)pyridin-2-yl)octahydro-3H-pyrrolo[3,4-c]pyridin-3-one], for which the EC50 is less than 10 µM. For `FC(F)(F)c1ccnc(N2C[C@H]3CCN(c4cncc(-c5nncs5)n4)C[C@H]3C2)c1` (racemic) [Compound 19, rac-2-[(3aR,7aS)-2-[4-(trifluoromethyl)pyridin-2-yl]-octahydro-1H-pyrrolo[3,4-c]pyridin-5-yl]-6-(1,3,4-thiadiazol-2-yl)pyrazine], the EC50 is greater than 100 µM.

For the molecule `FC(F)Cn1ncc2ncc(N3CC[C@@H]4CN(c5ccc(C(F)(F)F)nc5)C[C@@H]4C3)nc21` (racemic) [Compound 12, rac-5-[(3aR,7aS)-5-[1-(2,2-difluoroethyl)-1H-pyrazolo[3,4-b]pyrazin-6-yl]-octahydro-1H-pyrrolo[3,4-c]pyridin-2-yl]-2-(trifluoromethyl)pyridine], the EC50 lay within 10 to 50 µM. The molecule `FC(F)Cn1ncc2ncc(N[C@H]3C[C@@H]4CN(c5cccc(C(F)(F)F)n5)C[C@@H]4C3)nc21` [Compound 34, (3aR,5R,6aS)—N-[1-(2,2-difluoroethyl)-1H-pyrazolo[3,4-b]pyrazin-6-yl]-2-[6-(trifluoromethyl)pyridin-2-yl]-octahydrocyclopenta[c]pyrrol-5-amine] came in with an EC50 of 10 to 50 µM.
